Results as given in publication PMC6843445, “Pharmacokinetic Properties of Fluorescently Labelled Hydroxypropyl-Beta-Cyclodextrin” (Biomolecules, 2019).

Columns and labels:
[1] = test system: HUVECs; assay: Intracellular FITC-HPBCD accumulation, fluorescence microscopy; type: cell-based, Human; details: 50 µM, 30 min, 37 °C
Method: (§1) Human umbilical vein endothelial cells (HUVECs) were removed from umbilical veins by exposure to dispase (0.2% in Hank’s balanced salt solution) and cultured in gelatin-coated flasks in medium 199 containing 15% foetal bovine serum (FBS), antibiotics, L-glutamine, sodium pyruvate and endothelial cell growth supplement from bovine pituitary. For the fluorescent microscopic experiments, cells were seeded onto gelatin-coated round glass coverslips and maintained in medium until the treatments.
HUVECs, cultured on gelatin-coated glass coverslips were washed twice with Hank’s Balanced Salt Solution (HBSS) and treated with 50 µM FITC-HPBCD for 30 min at 37 °C. Cells were washed five times with ice-cold HBSS and fixed with 3% paraformaldehyde for 15 min. After fixation cells were washed with HBSS and the nuclei were stained with Hoechst 33,342 at the final concentration of 300 nM. Cells were washed again and mounted on microscope slides. […] Images were analyzed with ZEN 2012 v.1.1.0.0. software (Carl Zeiss Microscopy GmbH, Göttingen, Germany)

[2] = test system: HUVECs; assay: FITC-HPBCD uptake, flow cytometry; type: cell-based, Human
Method: as §1
In the flow cytometry experiments, HUVECs were treated with 50 µM FITC-HPBCD for 30 min at 37 °C and washed five times with ice-cold HBSS. Half of the samples were incubated for a further 60 min in HBSS at 37 °C. After the above-mentioned incubations every sample was trypsinized, the cell suspensions were washed twice with ice-cold HBSS and analyzed with a FACScan flow cytometer (BD Biosciences, San Jose, CA, USA). Propidium-iodide (PI) (2 µg/mL) was added to the samples to recognize dead cells and exclude them from the evaluation. FITC-HPBCD was excited by an argon laser at 488 nm and the emission was detected via 530/30 nm band pass filter. Data were analyzed by BDIS Cellquest software (Becton-Dickinson). The cellular fluorescence intensities of the FITC-HPBCD treated cells were compared to the fluorescence of the untreated control cells and expressed as relative cellular fluorescence intensities.

[3] = In vivo pharmacokinetic investigation, plasma FITC-HPBCD after i.v. administration; parameters: species or system BALB/c male mice; details: for CL: clearance = terminal ke × Vd1; for CL / ke (1–15 min) / t1/2 (1–15 min) / t1/2 (15–30 min) / t1/2 (30–60 min) / ke (15–30 min) / t1/2 (15–45 min) / t1/2 (45–60 min) / ke (15–45 min) / kc (1–15 min) / ke (30–60 min) / ke (45–60 min) / Vd: dose 250 µg; for ke (1–15 min): elimination rate constant; for ke (1–15 min) / ke (15–30 min) / ke (15–45 min) / kc (1–15 min) / ke (30–60 min) / ke (45–60 min): in min-1 (unit assumed); for t1/2 (1–15 min) / t1/2 (15–30 min) / t1/2 (30–60 min) / t1/2 (15–45 min) / t1/2 (45–60 min): in min; for Vd at 1 min of sampling: n = 6; for kc (1–15 min): rate constant of compartmentalization; for ke (30–60 min) / ke (45–60 min): terminal phase; for Vd: volume of distribution at 1 min
Method: Twelve BALB/c male mice (23–25 g) were involved in the study. 0.25 mg FITC-HPBCD, dissolved in 0.2 mL saline solution was injected into the lateral tail vein of each mouse. Blood samples were collected from the orbital sinus from six mice after 1, 15, 30 and 60 min and at 1, 15, 45 and 60 min from other six mice by the same sampling method. Blood samples were incubated for 1 h at 37 °C and centrifuged for 8 min at 1700 rpm to separate blood plasma. Aliquots of plasma from the samples were placed into black 96-well plates and their fluorescence intensities were measured by a FLUOstar Optima microplate reader (BMG LABTECH, Offenburg, Germany; 492 nm excitation and 520 nm emission wavelengths) and the plasma FITC-HPBCD concentrations were calculated.
The two compartment model was characterized by the following equations:(3) Ct=C^′×e^−kc×t+C^″×e^−ke×t (4) C0=C^′+C^″ where ke is the elimination rate constant of FITC-HPBCD determined from data of the terminal phase (ke(30-60 min) or ke(45-60 min)); t1/2 is the half-life of FITC-HPBCD calculated from the corresponding ke values; CL is the clearance of FITC-HPBCD; Vd is the volume of distribution of FITC-HPBCD determined from data related to the first minute (Vd1); Ct is the plasma concentration of FITC-HPBCD at “t”; C′ and C″ are the two components of the initial plasma concentration of FITC-HPBCD representing the amount of FITC-HPBCD that will be compartmentalized and eliminated, respectively.

[4] = Tissue accumulation in the supernatant of tissue homogenates ex vivo; parameters: species or system BALB/c male mice; details: mice, i.v., after 60 min
Method: After the last blood sample collection, six animals were anaesthetized, and their blood vessels were perfused by warm saline solution. Finally, all mice were sacrificed, and the organs were removed from the six saline-perfused mice for further analysis. The collected organs (livers, lungs, kidneys, spleens, hearts and brains) were homogenized by adding 0.8 mL saline solution and the homogenates were centrifuged at 10,000 rpm for 20 min at 4 °C. From each sample, 0.1 mL of supernatant was placed into black 96-well plates and the fluorescence intensities were measured by microplate reader as described above. The lower limit of quantification of FITC-HPBCD in mouse plasma and organ homogenates was 0.25 µg/mL. The protein content of the tissue samples was determined by PierceTM BCA protein assay (Thermo Scientific, Rockford, IL, USA) according to the manufacturer’s instruction. FITC-HPBCD content of the samples was normalized to the tissue protein content. The animals were maintained in accordance with the Guidelines for the Care and Use of Laboratory Animals; experiments were approved by the Animal Care Committee of the University of Debrecen (permission no. 12/2014).

[5] = mice, i.v., Group F, sampling 1, 15, 30 and 60 min
[6] = mice, i.v., Group F, sampling 1, 15, 45 and 60 min
[7] = mice, i.v., Group NF, sampling 1, 15, 30 and 60 min
[8] = mice, i.v., Group NF, sampling 1, 15, 45 and 60 min

In the case of “6-deoxy-6-[(5/6)-fluoresceinylthioureido]-(2-hydroxypropyl)-β-cyclodextrin [FITC-HPBCD]”, the “cellular localization by fluorescence microscopy” value [1] is reported as “detected in the cytoplasm of HUVECs in small green vesicles”, the “cellular fluorescence after further incubation in HBSS” value ([2]; 50 µM 30 min, then 60 min in HBSS) is reported as “significantly decreased” and the “cellular fluorescence vs untreated control” value ([2]; 50 µM, 30 min incubation) is reported as “significantly increased”. It also gave a CL [3, 5] of 0.11 ± 0.15 mL/min, a CL [3, 6] of 0.23 ± 0.08 mL/min and a CL [3, 7] of 0.25 ± 0.15 mL/min. For the same substance, the CL [3, 8] was 0.69 ± 0.38 mL/min, the “ke (1–15 min)” value [3, 5] was 0.092 ± 0.023 and the “ke (1–15 min)” value [3, 6] was 0.095 ± 0.017. The “ke (1–15 min)” value [3, 7] was 0.115 ± 0.017, the “ke (1–15 min)” value [3, 8] was 0.107 ± 0.006 and the “Vd at the first minute, average” value ([3]; mice, i.v., all animals n = 12) was 5.7 ± 1.34 mL. The “t1/2 (1–15 min)” value ([3]; mice, i.v., Group F (followed two-compartment model), sampling 1, 15, 30 and 60 min) was 7.82 ± 1.48, the “t1/2 (15–30 min)” value [3, 5] was 7.54 ± 0.52 and the “t1/2 (30–60 min)” value [3, 5] was 122.3 ± 109.4. The “ke (15–30 min)” value [3, 5] was 0.092 ± 0.007, the “t1/2 (1–15 min)” value [3, 6] was 7.5 ± 1.13 and the “t1/2 (15–45 min)” value [3, 6] was 13.55 ± 1.45. For the same substance, the “t1/2 (45–60 min)” value [3, 6] was 20.06 ± 3.89, the “ke (15–45 min)” value [3, 6] was 0.052 ± 0.007 and the “t1/2 (1–15 min)” value ([3]; mice, i.v., Group NF (did not follow model), sampling 1, 15, 30 and 60 min) was 6.13 ± 0.78. For the same substance, the “t1/2 (15–30 min)” value [3, 7] was 35.01 ± 10.15, the “t1/2 (30–60 min)” value [3, 7] was 16.61 ± 7.12 and the “ke (15–30 min)” value [3, 7] was 0.022 ± 0.009. For the same substance, the “t1/2 (1–15 min)” value [3, 8] was 6.50 ± 0.31, the “t1/2 (15–45 min)” value [3, 8] was 13.36 ± 3.05 and the “t1/2 (45–60 min)” value [3, 8] was 8.99 ± 4.54. The “ke (15–45 min)” value [3, 8] was 0.054 ± 0.013, the “Vd at 1 min of sampling” value ([3]; mice, i.v., group following the model) was 5.55 ± 0.98 mL and the “Vd at 1 min of sampling” value ([3]; mice, i.v., group not following the model) was 5.85 ± 1.72 mL. For the same substance, the “i.v. administered FITC-HPBCD eliminated from mice within 60 min” value ([3]; mouse, in vivo, iv) was 96.58 ± 2.6%, the “kc (1–15 min)” value [3, 5] was 0.109 ± 0.026 and the “kc (1–15 min)” value [3, 6] was 0.142 ± 0.033. The “ke (30–60 min)” value [3, 5] was 0.022 ± 0.029, the “ke (45–60 min)” value [3, 6] was 0.036 ± 0.008 and the “ke (30–60 min)” value [3, 7] was 0.049 ± 0.020. The “ke (45–60 min)” value [3, 8] was 0.095 ± 0.044, the Vd [3, 5] was 4.86 ± 0.21 mL and the Vd [3, 6] was 6.25 ± 0.77 mL. For the same substance, the Vd [3, 7] was 4.70 ± 1.27 mL, the Vd [3, 8] was 7.01 ± 0.81 mL and the “fluorescence intensities in the supernatant of liver, lung, spleen, heart and brain homogenates” value [4] was “not elevated”. For the same substance, the “fluorescence intensity in the supernatant of kidney homogenates” value ([4]; normalized to tissue protein content) was “significant fluorescence”.
